In publication PMC9069992 (Journal of the American Chemical Society, 2022):
Values belong to the compound of their own block, whether it stands above or below them.

Columns and labels:
GA of HeLa cells = test: CLSM / single cell imaging of fluorescence accumulation at Golgi apparatus; format: cell-based, Homo sapiens; settings: for effect of thioesterase inhibitor on GA accumulation of C6-NBD-Ceramide: Figures S11, S12; for effect of thioesterase inhibitor on accumulation of 1 at GA: by itself or in combination, Figures S4, S9, S10; for accumulation at / targeting of GA (in words): CLSM, fluorescence at GA, Figures S16, S30A, S33, S35-S44
[1] = Critical micelle concentration; format: physicochemical; settings: Figure 1C
TEM of self-assembly = format: physicochemical; settings: 20 μM, Figure S43
carboxylesterase (CES1) = target: T1, carboxylesterase (CES1) (Homo sapiens, UniProt P23141); test: Cell free hydrolysis by carboxylesterase; format: biochemical; settings: cell free assay, Figure S13
T1 sequence (P23141 18-567): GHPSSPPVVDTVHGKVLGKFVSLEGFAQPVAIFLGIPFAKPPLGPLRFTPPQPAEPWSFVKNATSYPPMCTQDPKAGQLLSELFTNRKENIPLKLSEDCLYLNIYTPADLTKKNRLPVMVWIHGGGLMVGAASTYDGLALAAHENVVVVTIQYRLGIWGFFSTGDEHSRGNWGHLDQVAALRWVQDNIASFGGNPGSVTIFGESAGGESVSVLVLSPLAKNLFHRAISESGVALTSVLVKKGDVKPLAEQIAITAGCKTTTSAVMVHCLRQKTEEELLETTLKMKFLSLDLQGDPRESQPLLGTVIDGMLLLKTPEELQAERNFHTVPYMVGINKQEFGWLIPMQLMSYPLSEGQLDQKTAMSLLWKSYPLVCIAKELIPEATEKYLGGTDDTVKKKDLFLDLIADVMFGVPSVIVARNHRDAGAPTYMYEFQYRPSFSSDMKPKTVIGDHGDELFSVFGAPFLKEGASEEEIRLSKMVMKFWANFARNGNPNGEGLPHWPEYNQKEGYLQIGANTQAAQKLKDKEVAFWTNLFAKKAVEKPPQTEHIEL

NRAS = test: ICC staining of NRAS distribution in MCF-7 cells; format: cell-based, Homo sapiens; settings: MCF-7, 10 μM, 30 min, ICC staining with NRAS antibody, Figure 3C
[2] = tested on: GA of HeLa, Saos-2, HEK293, MCF-7, HS-5, SJSA-1, HepG2, B16F10, S2 cells; test: CLSM of GA targeting in various cell lines; format: cell-based, Homo sapiens, Mus musculus, Drosophila; settings: 10 μM, 8 min, Figure 2B
[3] = tested on: neutrophils (polymorphonuclear leukocytes); test: GA localization in primary cells; format: cell-based; settings: Figure S24

SMILES: CN(CCCCCCNc1ccnc2cc(Cl)ccc12)CCCCCCNc1ccnc2cc(Cl)ccc12 [DC661, reference compound]
- effect of thioesterase inhibitor on GA accumulation of C6-NBD-Ceramide (GA of HeLa cells): cannot block the GA accumulation
- effect of thioesterase inhibitor on accumulation of 1 at GA (GA of HeLa cells): efficiently block 1 accumulating at GA

SMILES: CC(C)(C)C1CCN(C(=O)n2ncc(C(O)(c3ccccc3)c3ccccc3)n2)CC1 [ML211, reference compound]
- effect of thioesterase inhibitor on GA accumulation of C6-NBD-Ceramide (GA of HeLa cells): cannot block the GA accumulation
- effect of thioesterase inhibitor on accumulation of 1 at GA (GA of HeLa cells): efficiently block 1 accumulating at GA

- critical micelle concentration (CMC) [1]: 2.1 µM
- hydrolysis by carboxylesterase (CES1) (in words) (carboxylesterase (CES1)): able to catalyze the hydrolysis of 1
SMILES: CC(=O)SCCNC(=O)[C@@H](Cc1ccccc1)NC(=O)[C@@H](Cc1ccccc1)NC(=O)CCNc1ccc([N+](=O)[O-])c2nonc12 [compound 1]
- accumulation at / targeting of GA (in words) (GA of HeLa cells): accumulates primarily at GA
- time after addition until GA becomes distinguishable (GA of HeLa cells; Figures S1, S2, video S1): less than 1 min
- dependence on clathrin-mediated endocytosis at 2 μM (GA of HeLa cells; HeLa treated with chlorpromazine, 2 μM of 1, Figure S8): hardly
- dependence on clathrin-mediated endocytosis at 10 μM (GA of HeLa cells; HeLa treated with chlorpromazine, 10 μM of 1, Figure S8): only slightly
- time until fluorescence plateaus outside GA (GA of HeLa cells; HeLa, 10 μM, 60 min, single cell imaging analysis, Figure 1B): > 45 min
- enhancement of fluorescence intensity at GA from 1 minute to 8 minutes (GA of HeLa cells; HeLa, Figure S15): at least 3 times
- self-assembly seen by TEM (in words) (TEM of self-assembly): self-assembles into nanoparticles and nanofibers
- intracellular distribution of NRAS after pretreatment (in words) (NRAS): relocates from mainly plasma membrane to overwhelmingly GA
- targeting GA of various cells (in words) [2]: able to target GA of various cells from different organisms
- entry into primary cells and localization (in words) [3]: localizes at GA

SMILES: CCCCCCCCCCCCC/C=C/[C@@H](O)[C@H](CO)NC(=O)CCCCCNc1ccc([N+](=O)[O-])c2nonc12 [C6-NBD-ceramide, C6-NBD-Ceramide, reference compound]
- accumulation at / targeting of GA (in words) (GA of HeLa cells): shows dim fluorescence over 16 minutes
